How the values were obtained:
Assay in all cases: Steady-State Inhibition Assay
Conditions in all cases: pH 7.4
[1] = biological target: T1, 1-deoxy-D-xylulose 5-phosphate reductoisomerase (Escherichia coli (strain K12), UniProt P45568)
T1 sequence (P45568 whole entry): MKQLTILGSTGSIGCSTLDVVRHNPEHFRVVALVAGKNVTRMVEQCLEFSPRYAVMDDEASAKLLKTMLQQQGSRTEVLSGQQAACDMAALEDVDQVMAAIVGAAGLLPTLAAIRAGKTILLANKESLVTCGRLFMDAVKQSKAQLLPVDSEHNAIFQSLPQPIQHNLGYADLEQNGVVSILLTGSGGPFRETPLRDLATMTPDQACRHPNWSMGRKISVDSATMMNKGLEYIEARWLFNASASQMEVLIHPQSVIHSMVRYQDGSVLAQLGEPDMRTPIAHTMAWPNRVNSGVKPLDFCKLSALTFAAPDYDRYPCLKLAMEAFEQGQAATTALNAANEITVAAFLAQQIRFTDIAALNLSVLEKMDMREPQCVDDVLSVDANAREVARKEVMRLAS
Text: (§1) All reactions were monitored spectrophotometrically at 340 nm by using initial rates from the first 5% of reaction.

[2] = biological target: 4-hydroxy-tetrahydrodipicolinate reductase (Escherichia coli (strain K12), UniProt P04036)
Chain of 4-hydroxy-tetrahydrodipicolinate reductase (P04036 whole entry): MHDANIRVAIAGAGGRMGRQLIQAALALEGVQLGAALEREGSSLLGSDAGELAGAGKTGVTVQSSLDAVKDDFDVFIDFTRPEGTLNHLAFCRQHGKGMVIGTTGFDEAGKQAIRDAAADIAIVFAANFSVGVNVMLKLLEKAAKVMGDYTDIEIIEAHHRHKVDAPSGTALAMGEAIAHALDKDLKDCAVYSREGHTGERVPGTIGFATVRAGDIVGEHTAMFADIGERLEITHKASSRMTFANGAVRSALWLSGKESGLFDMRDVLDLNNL
Text: as §1

[3] = biological target: T2, Quinone-dependent D-lactate dehydrogenase (Escherichia coli (strain K12), UniProt P06149)
T2 sequence (P06149 whole entry): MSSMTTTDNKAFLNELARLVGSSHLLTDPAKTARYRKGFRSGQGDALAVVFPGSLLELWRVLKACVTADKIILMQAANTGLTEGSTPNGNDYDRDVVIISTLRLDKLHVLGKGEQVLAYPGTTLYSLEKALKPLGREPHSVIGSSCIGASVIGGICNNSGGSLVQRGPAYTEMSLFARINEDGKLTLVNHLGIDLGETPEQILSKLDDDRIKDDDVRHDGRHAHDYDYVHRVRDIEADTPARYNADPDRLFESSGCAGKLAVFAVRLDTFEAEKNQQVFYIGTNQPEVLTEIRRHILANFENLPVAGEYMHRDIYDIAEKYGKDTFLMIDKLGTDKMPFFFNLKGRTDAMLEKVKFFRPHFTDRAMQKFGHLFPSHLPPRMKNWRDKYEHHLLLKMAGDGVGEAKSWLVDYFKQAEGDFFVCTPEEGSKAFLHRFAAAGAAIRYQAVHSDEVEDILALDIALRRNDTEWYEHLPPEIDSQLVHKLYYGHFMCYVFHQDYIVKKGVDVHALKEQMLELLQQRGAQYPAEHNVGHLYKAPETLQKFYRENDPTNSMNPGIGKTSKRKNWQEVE
Text: as §1

Ki [1] [µM] | Ki [2] [µM] | Ki [3] [µM] | SMILES
> 50 | 0.026 | 55 | O=C(O)CN1C(=O)/C(=C/c2ccc(O)c(O)c2)SC1=S [Bi-ligand, 1]
10 | > 50 | 0.042 | O=C(CCCCN1C(=O)/C(=C/c2ccc(O)c(O)c2)SC1=S)NCc1ccc(Cl)c(Cl)c1 [Bi-ligand, 2]
0.202 | > 25 | 12 | Cc1ccc(Oc2ccc(NC(=O)CN3C(=O)/C(=C/c4ccc(O)c(O)c4)SC3=S)cc2)cc1 [Bi-ligand, 3]
7.9 | 0.1 | 0.62 | O=C(CN1C(=O)/C(=C/c2ccc(O)c(O)c2)SC1=S)NCCSc1cc(C(=O)O)nc(C(=O)O)c1 [Bi-ligand, 4]
